Source: the NIST ThermoML archive (doi:10.1016/j.jct.2008.01.008)
Numbers after ± are expanded uncertainties.

How the values were obtained:
[1] = 298.15 K, 101.33 kPa, Liquid; for viscosity: Capillary tube (Ostwald / Ubbelohde) method; for speed of sound: Sing-around technique in a fixed-path interferometer
[2] = xn = mol fraction of the nth substance listed; conditions: 298.15 K, 101 kPa, Liquid; for viscosity: Capillary tube (Ostwald / Ubbelohde) method; for speed of sound: Sing-around technique in a fixed-path interferometer

COCC(C)OCC(C)OC (centres undefined) [2-methoxy-1-(2-methoxy-1-methylethoxy)propane]
[1]
Conditions | mass density [kg/m3] | speed of sound [m/s] | viscosity [mPa·s]
– | 898.566 ± 0.33 | 1205 ± 0.8 | 0.9926 ± 0.012

COCC(C)OCC(C)OC (centres undefined) [2-methoxy-1-(2-methoxy-1-methylethoxy)propane] + CCCO
[2]
Conditions | mass density [kg/m3] | speed of sound [m/s] | viscosity [mPa·s]
x1 = 0.0008 | – | – | 1.955 ± 0.015
x1 = 0.0061 | – | – | 1.928 ± 0.015
x1 = 0.0186 | – | – | 1.866 ± 0.015
x1 = 0.0409 | – | – | 1.775 ± 0.015
x1 = 0.0653 | 815.198 ± 0.45 | 1210.9 ± 0.81 | –
x1 = 0.0666 | – | – | 1.678 ± 0.014
x1 = 0.0903 | – | – | 1.599 ± 0.014
x1 = 0.1089 | 824.018 ± 0.43 | 1212.8 ± 0.81 | –
x1 = 0.1309 | – | – | 1.494 ± 0.013
x1 = 0.1451 | 830.582 ± 0.42 | 1214 ± 0.81 | –
x1 = 0.1846 | – | – | 1.382 ± 0.013
x1 = 0.2124 | 841.11 ± 0.41 | 1215.2 ± 0.81 | –
x1 = 0.267 | – | – | 1.264 ± 0.013
x1 = 0.2694 | 848.766 ± 0.4 | 1216 ± 0.81 | –
x1 = 0.3041 | 852.935 ± 0.39 | 1215.8 ± 0.81 | –
x1 = 0.3136 | – | – | 1.211 ± 0.012
x1 = 0.3359 | 856.509 ± 0.39 | 1215.6 ± 0.81 | –
x1 = 0.345 | – | – | 1.184 ± 0.012
x1 = 0.3718 | – | – | 1.164 ± 0.012
x1 = 0.3913 | 862.204 ± 0.38 | 1215.6 ± 0.81 | –
x1 = 0.4516 | – | – | 1.112 ± 0.012
x1 = 0.4561 | 868.154 ± 0.37 | 1215.4 ± 0.81 | –
x1 = 0.502 | 872.013 ± 0.36 | 1215.3 ± 0.81 | –
x1 = 0.5198 | – | – | 1.081 ± 0.012
x1 = 0.5464 | 875.439 ± 0.36 | 1214.6 ± 0.81 | –
x1 = 0.5625 | – | – | 1.066 ± 0.012
x1 = 0.6111 | – | – | 1.05 ± 0.012
x1 = 0.6139 | 880.179 ± 0.35 | 1213.9 ± 0.81 | –
x1 = 0.6459 | – | – | 1.043 ± 0.012
x1 = 0.6513 | 882.571 ± 0.35 | 1213.2 ± 0.81 | –
x1 = 0.708 | 885.911 ± 0.34 | 1212.5 ± 0.81 | –
x1 = 0.7346 | – | – | 1.021 ± 0.012
x1 = 0.7572 | 888.492 ± 0.34 | 1211.4 ± 0.81 | –
x1 = 0.7703 | – | – | 1.012 ± 0.012
x1 = 0.8098 | 891.002 ± 0.33 | 1210.3 ± 0.81 | –
x1 = 0.8317 | – | – | 1.005 ± 0.012
x1 = 0.8457 | 892.536 ± 0.33 | 1209.5 ± 0.81 | –
x1 = 0.8591 | – | – | 1.002 ± 0.012
x1 = 0.9067 | 894.986 ± 0.33 | 1207.9 ± 0.8 | –
x1 = 0.9511 | – | – | 0.9968 ± 0.012
x1 = 0.9576 | 896.939 ± 0.33 | 1206.4 ± 0.8 | –
x1 = 0.9746 | 897.584 ± 0.32 | 1206.1 ± 0.8 | –
x1 = 0.9753 | – | – | 0.993 ± 0.012
x1 = 0.9915 | – | – | 0.9927 ± 0.012

CCCCCCCO [heptan-1-ol]
[1]
Conditions | mass density [kg/m3] | speed of sound [m/s] | viscosity [mPa·s]
– | 818.851 ± 0.45 | 1327.4 ± 0.84 | 5.886 ± 0.034

CO [methanol]
[1]
Conditions | mass density [kg/m3] | speed of sound [m/s] | viscosity [mPa·s]
– | 786.548 ± 0.49 | 1102.6 ± 0.77 | 0.5444 ± 0.011

CCCCCO [pentan-1-ol]
[1]
Conditions | mass density [kg/m3] | speed of sound [m/s] | viscosity [mPa·s]
– | 811.001 ± 0.46 | 1276 ± 0.83 | 3.495 ± 0.022

CCCO [propan-1-ol]
[1]
Conditions | mass density [kg/m3] | speed of sound [m/s] | viscosity [mPa·s]
– | 799.666 ± 0.47 | 1206.5 ± 0.8 | 1.959 ± 0.015
